The values below come from patent publication US8183005B1, “Pharmaceutical agents for treating HCV infections” (priority 2004, dated 2012).

Like-named read-outs stand apart in the source and are kept apart here.

Data set [1] in a line: in vitro. The data set is classed as cell-based. The following applies: human. On the procedure:
(§1) Firefly luciferase HCV replicon cells (Huh-3-1) suspended in Dulbecco's MEM (Gibco Cat. No. 10569) containing 5% fetal bovine serum (Hyclone Cat. No. SH30071.03) were plated onto a 96-well plate at 5000 cells/well, and cultured overnight under 5% CO2 at 37° C. Approximately 20 hours later, fumonisin B1 was added to a final concentration of 1.37 μM to 1000 μM by carrying out a sequential three-fold dilution, and the cells were then cultured for three more days. The assay was carried out by preparing two types of assay plates: one an opaque white plate and the other a transparent plate. After culturing, the white plate was subjected to the Steady-Glo Luciferase Assay System (Promega Cat. No. E2520). More specifically, 100 μL of reagent was added to each well, mixed three to four times using a pipette, and then stood for five minutes before luminescence was measured using 1450 MicroBeta TRILUX (WALLAC). IC50 (50% inhibitory concentration) of a pharmaceutical agent was calculated by subtracting the value obtained without adding the cells as the background value from all of the values, and then defining the level of inhibition without addition of the pharmaceutical agent as 0%. A Cell Counting Kit-8 (DOJINDO Laboratories, Cat. No. 341-07761) was used for the cytotoxicity assays. 10 μL of reagent was added to each well, mixed three to four times using a pipette, and then stood for approximately 30 minutes; measurements were performed when OD450 nm reached approximately 1.0. IC50 (50% inhibitory concentration) of a pharmaceutical agent was calculated by subtracting the value obtained without adding the cells as the background value from all of the values, and then defining the level of inhibition without addition of the pharmaceutical agent as 0%.
(§2) Based on the results of Example 5, the following method was used to measure the effect on cytotoxicity and HCV replicon activity under conditions in which Huh-3-1 cells show reduced LCB1 expression. More specifically, cells were plated onto a 96-well plate at 3500 cells per well, and cultured overnight under 5% CO2 at 37° C. 1.75 μL of 2 μM siRNA was added to 23.3 μL of ECR buffer (buffer included in the RNAiFect Kit), this was stirred vigorously, and then 0.31 μL of RNAiFect transfection reagent was added. This was stirred gently at room temperature and then allowed to stand for ten minutes. siRNA was added to a final concentration of 35 nM, and this was cultured for four days. The effect on cytotoxicity was determined by adding 10 μL of Cell Counting Kit-8 (DOJINDO Laboratories Cat. No. 341-07761) to the medium, mixing three to four times using a pipette, and then allowing this to stand for one hour at 37° C. Absorbance was then measured at 450 nm using a microplate reader Emax (Molecular Devices). After incubation, the medium was exchanged for fresh medium, and the plate was subjected to the Steady-Glo Luciferase Assay System (Promega Cat. No. E2520). 100 μL of reagent was added to each well, mixed three to four times using a pipette, and then allowed to stand for five minutes. Luminescence was then measured using 1450 MicroBeta TRILUX (WALLAC) to determine the HCV replicon activity. IC50 (50% inhibitory concentration) of a pharmaceutical agent was calculated by subtracting the value obtained without adding the cells as the background value from all of the values, and then defining the level of inhibition without addition of the pharmaceutical agent as 0%.
A Cell Counting Kit-8 (DOJINDO Laboratories, Cat. No. 341-07761) was used for the cytotoxicity assays. More specifically, 10 μL of Cell Counting Kit-8 was added to the transparent plate, and this was warmed at 37° C. for 30 to 60 minutes. Using a 96-well plate reader, absorbance was measured at a wavelength of 450 nm with a reference wavelength of 630 nm. […]

Data set [2] has as its system HCV-NS3 protein. In words: Immunostaining of HCV-NS3 protein in HCV replicon cells. The class given is cell-based. The settings on record: 100 nM, 96 hours. On the procedure: HCV replicon cells were treated with 100 nM of the compound represented by formula (II) for 96 hours, and then the cells were fixed in 3.7% formaldehyde. Blocking with 3% BSA was followed by incubation with an NS3 antibody (provided by F. Hoffman-La Roche), and then the washed cells were incubated with a Texas-Red-labeled rabbit IgG (Molecular probe), and analyzed using a fluorescence microscope (FIG. 10).

The subject of data set [3] is NS3, NS5A, and NS5B. Briefly: Western blotting of NS3, NS5A and NS5B in replicon cells. The data set is classed as cell-based, HCV. The settings on record: 100 nM, 48 hours and 96 hours. On the procedure: Replicon cells were treated with 100 nM of the compound represented by formula (II) for the lengths of time indicated in FIG. 11 (48 hours and 96 hours). Western blot analysis was performed using a method similar to that of Example 5.

The test system of data set [4] is de novo syntheses of ceramide and sphingomyelin. In words: De novo syntheses of ceramide and sphingomyelin, [14C]serine labeling. The class given is cell-based. The following applies: HCV replicon cells, 48 hours treatment, [14C]serine three hours. On the procedure:
HCV replicon cells were treated for 48 hours with the compound represented by formula (II) at the concentrations indicated in FIG. 13. The cells were then labeled for three hours with [14C]serine. After extraction with chloroform/methanol (1:2, v/v), de novo synthesized ceramide (FIG. 13A) and sphingomyelin (FIG. 13B) were separated by thin layer chromatography.

For data set [5], the system named is HCV replication. In words: Recovery from replication inhibition by C2-ceramide, Western blot. The class given is cell-based. The following applies: C2-ceramide added at the same time, 96 hours. On the procedure: To elucidate whether the inhibitory activity of the compound represented by formula (II) against the HCV replicon is dependent on the sphingolipid biosynthetic pathway, cell-permeable ceramide, C2-ceramide (Sigma, Cat. No. A7191), was added to HCV replicon cells at the same time as the compound represented by formula (II), and these were cultured for 96 hours. These cell extracts were used to perform Western blot analysis using a method similar to that of Example 5.

Data set [6] has as its system raft proteins (NS5B, NS5A, caveolin-2). In words: Effect on raft proteins, sucrose density gradient fractionation, Western blot or ELISA. The data set is classed as cell-based. The settings on record: 72 hours. On the procedure: 1 mM of the compound represented by formula (II) was added to the HCV replicon cells, then 72 hours later the cell extract was treated for one hour with a solubilizer, 1% Nonidet P-40 (Nacalai tesque, Cat. No. 252-23). Fractions 1 to 9 were separated by the sucrose density gradient fractionation method, and Western blot analysis was performed using a method similar to that of Example 5. […] Caveolin-2 expression was confirmed using a caveolin-2 antibody (BD Transduction, Cat. No 610684).
1 μM of the compound represented by formula (II) was added to the HCV replicon cells, then 72 hours later the cell extract was treated for one hour with 1% NP-40. Raft proteins (solubilizer-resistant) and non-raft proteins were separated using the sucrose density gradient fractionation method, diluted with PBS, concentrated, and then quantified by ELISA analysis.

The test system of data set [7] is HCV replicon. In words: HCV replicon assay (luciferase). The data set is classed as cell-based. The following applies: HCV replicon cells, 72 hours. On the procedure:
as §1, §2
First, to quantify the copy number of HCV-RNA, an RNA was constructed such that a firefly-derived luciferase gene was introduced into the HCV-RNA as a reporter gene. According to the method of Krieger et al. (J. Virol., 75: 4614), the luciferase gene was introduced immediately after the Internal Ribosome Entry Site (IRES) of the HCV gene, so that the gene was fused with the neomycin-resistance gene. […]

Data set [8] has as its system HCV RNA replication. Briefly: Northern blot analysis of HCV RNA replication in Huh-3-1 replicon cells. The data set is classed as cell-based. The following applies: Hepatitis C virus, 72 h, read-out: concentration reducing replicon RNA by 50%.
Experimental: Cells were collected 72 hours later, total RNAs were extracted, and this was subjected to Northern blot analysis using a neomycin resistance gene as a probe according to the NorthernMax Kit method, available from Ambion.
The probes were labeled with biotin using a BrightStar Psoralen-Biotin Kit (Ambion #9860G3).
1 μg of the total RNAs were electrophoresed on a 1% agarose gel, and then the RNAs were stained with ethidium bromide. The resulting gel was photographed and decolorized, then NorthernMax transfer buffer was used for two hours to transfer the RNAs to the transfer membrane. While the membrane was still wet, the RNAs were fixed to the transfer membrane using a UV crosslinker. The membrane was pretreated in ULTRAhyb for 30 minutes at 42° C. while being rotated in a Hybridization oven. This pretreatment solution was then discarded, and the membrane was treated by adding the biotinylated neomycin resistance gene and 10 mL of ULTRAhyb solution, and then shaking overnight at 42° C.
The ULTRAhyb solution was then discarded, and 15 mL of High Stringency Buffer pre-warmed to 42° C. was added to the membrane, and this was shaken for 30 minutes at 42° C. This same operation was then repeated once. The transfer membrane was washed using enough wash buffer to soak the membrane. The transfer membrane was shaken in a blocking buffer for 30 minutes, then this solution was discarded. […]
The test system of data set [9] is HCV protein (NS3). Briefly: Western blot analysis of HCV protein synthesis in Huh-3-1 replicon cells. The settings on record: Hepatitis C virus, 72 h, read-out: concentration reducing expression of HCV proteins by 50%. The data set is classed as cell-based.
Experimental: After 72 hours, the culture medium was discarded, phosphate buffered saline (PBS) was added, and the cells were dislodged by pipetting and then collected by centrifugation. A lysis solution for phosphate (50 mM Tris-HCl (pH 7.5), 0.5% Triton, 3 mM EDTA, 150 mM NaCl, 12 mM glycerophosphate, 50 mM NaF, 1 mM Na3VO4, 0.5 mM PMSF, and 0.5 mM aporotinin) was added to the cells, the cells were disrupted by pipetting, and the supernatant was collected by high-speed centrifugation. A protein assay was carried out using Dye Reagent (Nacalai Tesque #074-27) (Bovine Gamma Globulin, Standard solution, BIO-RAD #500-0005). […] Rainbow molecular weight markers (Amersham Bioscience #RPN756) were used as molecular weight size markers. […] Western analysis was performed using a rabbit antibody against NS3, derived from an HCV protein. Anti-actin rabbit antibody was used as an internal standard.

`CCCCCCCC(=O)CCCCCC/C=C/[C@H](C(=O)N[C@@H](Cc1ccc(OCC=C(C)C)cc1)C(=O)O)[C@@](O)(CC(=O)O)C(=O)O` [Compound (40)]: the CC50 in data set [1] (HCV replicon cells, FIG. 9, read-out: cytotoxicity CC50) is greater than 50 nM. For the same compound, the CC50 in [1] (Huh-3-1 replicon cells, three days, Cell Counting Kit-8, read-out: Cytotoxicity CC50) was greater than 5000 nM. Moreover, the “HCV-NS3 protein around the nucleus (immunostaining)” value in data set [2] was “disappeared”. Further, the “expression levels of NS3, NS5A and NS5B” value in data set [3] is given as “reduced”. Also, in [4], the “intracellular de novo synthesis of ceramide” value is “inhibited” and the “intracellular de novo synthesis of sphingomyelin” value was “inhibited”. In addition, in data set [5], the “inhibition of HCV replication in presence of C2-ceramide” value is listed as “suppressed in a manner dependent on C2-ceramide concentration”. Moreover, the “dissociation of NS5B from the raft” value in data set [6] (1 μM, 1% NP-40, ELISA) was “significant dissociation of NS5B from the raft”. In data set [6] (1 mM, 1% Nonidet P-40, Western blot), the “effect on NS5A and caveolin-2” value is “could not be confirmed”.

`CCCCCCC(=O)CCCCCC/C=C/C[C@@H](O)[C@H](O)[C@@](N)(CO)C(=O)O` [myriocin]: in data set [7], the “HCV replication (replicon activity) versus viable cell count” value is “suppressing the HCV replication at non-cytotoxic concentrations”. The IC50 in data set [8] and in data set [9] was 1 to 10 nM each time.
